target: Bcl-2 G101V (Homo sapiens, UniProt P10415, G101V); assay: Bcl-2 G101V inhibition, fluorescence polarization (Flu-BIM tracer) binding assay; settings: not given

| SMILES | IC50 [nM] |
| --- | --- |
| CC1(C)CCC(CN2CCN(c3ccc(C(=O)NS(=O)(=O)c4ccc(NC[C@H]5COCCO5)c([N+](=O)[O-])c4)c(Oc4cnc5[nH]ccc5c4)c3)CC2)=C(c2cc(C(=O)Nc3ccccc3)cs2)C1 [Example 17, (S)-5-(2-((4-(4-(((4-(((1,4-dioxan-2-yl)methyl)amino)-3-nitrophenyl)sulfonyl)carbamoyl)-3-((1H-pyrrolo[2,3-b]pyridin-5-yl)oxy)phenyl)piperazin-1-yl)methyl)-5,5-dimethylcyclohex-1-en-1-yl)-N-phenylthiophene-3-carboxamide] | 49.5 |

same assay, conditions: FP; 20 nM Bcl2, 5 nM Flu-BIM, 1 h incubation; read-out: Bcl-2 G101V (FP)

| SMILES | IC50 [nM] |
| --- | --- |
| CC1(C)CCC(CN2CCN(c3ccc(C(=O)NS(=O)(=O)c4ccc(NCC5CCOCC5)c([N+](=O)[O-])c4)c(Oc4cnc5[nH]ccc5c4)c3)CC2)=C(c2ccsc2-c2ccccc2)C1 [Example 35, 2-((1H-pyrrolo[2,3-b]pyridin-5-yl)oxy)-4-(4-((4,4-dimethyl-2-(2-phenylthiophen-3-yl)cyclohex-1-en-1-yl)methyl)piperazin-1-yl)-N-((3-nitro-4-(((tetrahydro-2H-pyran-4-yl)methyl)amino)phenyl)sulfonyl)benzamide] | 47.6 |
| Cc1sccc1C1=C(CN2CCN(c3ccc(C(=O)NS(=O)(=O)c4ccc(NCC5CCOCC5)c([N+](=O)[O-])c4)c(Oc4cnc5[nH]ccc5c4)c3)CC2)CCC(C)(C)C1 [Example 1, 2-((1H-pyrrolo[2,3-b]pyridin-5-yl)oxy)-4-(4-((4,4-dimethyl-2-(2-methylthiophen-3-yl)cyclohex-1-en-1-yl)methyl)piperazin-1-yl)-N-((3-nitro-4-(((tetrahydro-2H-pyran-4-yl)methyl)amino)phenyl)sulfonyl)benzamide] | 32.7 |
| CCC(O)(CC)c1cc(F)c(-c2csc(C3=C(CN4CCN(c5ccc(C(=O)NS(=O)(=O)c6ccc(NC[C@H]7CC[C@](C)(O)CC7)c([N+](=O)[O-])c6)c(Oc6cnc7[nH]ccc7c6)c5)CC4)CCC(C)(C)C3)c2)c(F)c1 [Example 67, 2-((1H-pyrrolo[2,3-b]pyridin-5-yl)oxy)-4-(4-((2-(4-(2,6-difluoro-4-(3-hydroxypentan-3-yl)phenyl)thiophen-2-yl)-4,4-dimethylcyclohex-1-en-1-yl)methyl)piperazin-1-yl)-N-((4-((((1r,4r)-4-hydroxy-4-methylcyclohexyl)methyl)amino)-3-nitrophenyl)sulfonyl)benzamide] | 33.7 |
| CC1(C)CCC(CN2CCN(c3ccc(C(=O)NS(=O)(=O)c4ccc(NCC5CCOCC5)c([N+](=O)[O-])c4)c(Oc4cnc5[nH]ccc5c4)c3)CC2)=C(c2cc(-c3ccccc3)cs2)C1 [Example 34, 2-((1H-pyrrolo[2,3-b]pyridin-5-yl)oxy)-4-(4-((4,4-dimethyl-2-(4-phenylthiophen-2-yl)cyclohex-1-en-1-yl)methyl)piperazin-1-yl)-N-((3-nitro-4-(((tetrahydro-2H-pyran-4-yl)methyl)amino)phenyl)sulfonyl)benzamide] | 47.9 |
| CC1(C)CCC(CN2CCN(c3ccc(C(=O)NS(=O)(=O)c4ccc(NC[C@H]5COCCO5)c([N+](=O)[O-])c4)c(Oc4cnc5[nH]ccc5c4)c3)CC2)=C(c2cc(-c3ccc(C(F)(F)F)cc3)cs2)C1 [Example 40, (S)—N-((4-(((1,4-dioxan-2-yl)methyl)amino)-3-nitrophenyl)sulfonyl)-2-((1H-pyrrolo[2,3-b]pyridin-5-yl)oxy)-4-(4-((4,4-dimethyl-2-(4-(4-(trifluoromethyl)phenyl)thiophen-2-yl)cyclohex-1-en-1-yl)methyl)piperazin-1-yl)benzamide] | 43.4 |
| CC1(C)CCC(CN2CCN(c3ccc(C(=O)NS(=O)(=O)c4ccc(NC[C@H]5CC[C@](C)(O)CC5)c([N+](=O)[O-])c4)c(Oc4cnc5[nH]ccc5c4)c3)CC2)=C(c2cc(-c3ccc(C(C)(C)O)c(F)c3)cs2)C1 [Example 71, 2-((1H-pyrrolo[2,3-b]pyridin-5-yl)oxy)-4-(4-((2-(4-(3-fluoro-4-(2-hydroxypropan-2-yl)phenyl)thiophen-2-yl)-4,4-dimethylcyclohex-1-en-1-yl)methyl)piperazin-1-yl)-N-((4-((((1r,4r)-4-hydroxy-4-methylcyclohexyl)methyl)amino)-3-nitrophenyl)sulfonyl)benzamide] | 20.3 |
| [2H]C([2H])([2H])C(O)(c1cc(F)c(-c2csc(C3=C(CN4CCN(c5ccc(C(=O)NS(=O)(=O)c6ccc(NC[C@H]7CC[C@](C)(O)CC7)c([N+](=O)[O-])c6)c(Oc6cnc7[nH]ccc7c6)c5)CC4)CCC(C)(C)C3)c2)c(F)c1)C([2H])([2H])[2H] [Example 68, 2-((1H-pyrrolo[2,3-b]pyridin-5-yl)oxy)-4-(4-((2-(4-(2,6-difluoro-4-(2-hydroxypropan-2-yl-1,1,1,3,3,3-d6)phenyl)thiophen-2-yl)-4,4-dimethylcyclohex-1-en-1-yl)methyl)piperazin-1-yl)-N-((4-((((1r,4r)-4-hydroxy-4-methylcyclohexyl)methyl)amino)-3-nitrophenyl)sulfonyl)benzamide] | 27.8 |
| CC1(C)CCC(CN2CCN(c3ccc(C(=O)NS(=O)(=O)c4ccc(NC[C@H]5CC[C@](C)(O)CC5)c([N+](=O)[O-])c4)c(Oc4cnc5[nH]ccc5c4)c3)CC2)=C(c2cc(-c3ccc(F)c(F)c3)cs2)C1 [Example 51, 2-((1H-pyrrolo[2,3-b]pyridin-5-yl)oxy)-4-(4-((2-(4-(3,4-difluorophenyl)thiophen-2-yl)-4,4-dimethylcyclohex-1-en-1-yl)methyl)piperazin-1-yl)-N-((4-((((1r,4r)-4-hydroxy-4-methylcyclohexyl)methyl)amino)-3-nitrophenyl)sulfonyl)benzamide] | 45.5 |
| CC1(C)CCC(CN2CCN(c3ccc(C(=O)NS(=O)(=O)c4ccc(NC[C@H]5CC[C@](C)(O)CC5)c([N+](=O)[O-])c4)c(Oc4cnc5[nH]ccc5c4)c3)CC2)=C(c2cc(-c3ccc(F)cc3)cs2)C1 [Example 37, 2-((1H-pyrrolo[2,3-b]pyridin-5-yl)oxy)-4-(4-((2-(4-(4-fluorophenyl)thiophen-2-yl)-4,4-dimethylcyclohex-1-en-1-yl)methyl)piperazin-1-yl)-N-((4-((((1r,4r)-4-hydroxy-4-methylcyclohexyl)methyl)amino)-3-nitrophenyl)sulfonyl)benzamide] | 34.9 |
| CC(CO)c1ccc(-c2csc(C3=C(CN4CCN(c5ccc(C(=O)NS(=O)(=O)c6ccc(NC[C@H]7CC[C@](C)(O)CC7)c([N+](=O)[O-])c6)c(Oc6cnc7[nH]ccc7c6)c5)CC4)CCC(C)(C)C3)c2)c(F)c1 (stereo partly shown) [Example 72, 2-((1H-pyrrolo[2,3-b]pyridin-5-yl)oxy)-4-(4-((2-(4-(2-fluoro-4-(1-hydroxypropan-2-yl)phenyl)thiophen-2-yl)-4,4-dimethylcyclohex-1-en-1-yl)methyl)piperazin-1-yl)-N-((4-((((1r,4r)-4-hydroxy-4-methylcyclohexyl)methyl)amino)-3-nitrophenyl)sulfonyl)benzamide] | 27 |
| CC1(C)CCC(CN2CCN(c3ccc(C(=O)NS(=O)(=O)c4ccc(NC[C@H]5CC[C@](C)(O)CC5)c([N+](=O)[O-])c4)c(Oc4cnc5[nH]ccc5c4)c3)CC2)=C(c2cc(-c3cc(F)c(F)cc3F)cs2)C1 [Example 53, 2-((1H-pyrrolo[2,3-b]pyridin-5-yl)oxy)-4-(4-((4,4-dimethyl-2-(4-(2,4,5-trifluorophenyl)thiophen-2-yl)cyclohex-1-en-1-yl)methyl)piperazin-1-yl)-N-((4-((((1r,4r)-4-hydroxy-4-methylcyclohexyl)methyl)amino)-3-nitrophenyl)sulfonyl)benzamide] | 36.6 |
| CC1(C)CCC(CN2CCN(c3ccc(C(=O)NS(=O)(=O)c4ccc(NC[C@H]5CC[C@](C)(O)CC5)c([N+](=O)[O-])c4)c(Oc4cnc5[nH]ccc5c4)c3)CC2)=C(c2cc(-c3cc(F)cc(C#N)c3)cs2)C1 [Example 55, 2-((1H-pyrrolo[2,3-b]pyridin-5-yl)oxy)-4-(4-((2-(4-(3-cyano-5-fluorophenyl)thiophen-2-yl)-4,4-dimethylcyclohex-1-en-1-yl)methyl)piperazin-1-yl)-N-((4-((((1r,4r)-4-hydroxy-4-methylcyclohexyl)methyl)amino)-3-nitrophenyl)sulfonyl)benzamide] | 47.5 |
| CC1(C)CCC(CN2CCN(c3ccc(C(=O)NS(=O)(=O)c4ccc(NC[C@H]5CC[C@](C)(O)CC5)c([N+](=O)[O-])c4)c(Oc4cnc5[nH]ccc5c4)c3)CC2)=C(c2cc(-c3ccc(F)c(F)c3F)cs2)C1 [Example 46, 2-((1H-pyrrolo[2,3-b]pyridin-5-yl)oxy)-4-(4-((4,4-dimethyl-2-(4-(2,3,4-trifluorophenyl)thiophen-2-yl)cyclohex-1-en-1-yl)methyl)piperazin-1-yl)-N-((4-((((1r,4r)-4-hydroxy-4-methylcyclohexyl)methyl)amino)-3-nitrophenyl)sulfonyl)benzamide] | 43.5 |
| CC1(C)CCC(CN2CCN(c3ccc(C(=O)NS(=O)(=O)c4ccc(NC[C@H]5COCCO5)c([N+](=O)[O-])c4)c(Oc4cnc5[nH]ccc5c4)c3)CC2)=C(c2cc(-c3ccc(F)c(F)c3)cs2)C1 [Example 50, (S)—N-((4-(((1,4-dioxan-2-yl)methyl)amino)-3-nitrophenyl)sulfonyl)-2-((1H-pyrrolo[2,3-b]pyridin-5-yl)oxy)-4-(4-((2-(4-(3,4-difluorophenyl)thiophen-2-yl)-4,4-dimethylcyclohex-1-en-1-yl)methyl)piperazin-1-yl)benzamide] | 42.7 |
| CC1(C)CCC(CN2CCN(c3ccc(C(=O)NS(=O)(=O)c4ccc(NC[C@H]5CC[C@](C)(O)CC5)c([N+](=O)[O-])c4)c(Oc4cnc5[nH]ccc5c4)c3)CC2)=C(c2cc(-c3ccc(C(C)(C)C#N)cc3)cs2)C1 [Example 56, 2-((1H-pyrrolo[2,3-b]pyridin-5-yl)oxy)-4-(4-((2-(4-(4-(2-cyanopropan-2-yl)phenyl)thiophen-2-yl)-4,4-dimethylcyclohex-1-en-1-yl)methyl)piperazin-1-yl)-N-((4-((((1r,4r)-4-hydroxy-4-methylcyclohexyl)methyl)amino)-3-nitrophenyl)sulfonyl)benzamide] | 27.6 |
